Paper PMC4193777 (PLoS ONE, 2014)

Tests used:
neutrophils = assay: Calcium mobilization in neutrophils; assay type: cell-based, human; conditions: WKYMVM 100 nM or F2Pal10 500 nM
Procedure: Neutrophils or transfected HL-60 cells at a density of 5×10^7 cells/ml in KRG containing 0.1% BSA were loaded with 5 µM FURA 2-AM for 30 minutes in the dark at room temperature. The cells were then diluted 1/2 in RPMI 1640 culture medium without phenol red (PAA Laboratories GmbH, Pasching, Austria) and centrifuged. Finally, the cells were washed once with KRG and resuspended in the same buffer at a density of 2×10^7/ml. Calcium measurements were carried out in a PerkinElmer fluorescence spectrophotometer (LC50), with excitation wavelengths of 340 nm and 380 nm, an emission wavelength of 509 nm, and slit widths of 5 nm and 10 nm, respectively. The transient rise in intracellular calcium is presented as the ratio of fluorescence intensities (340 nm: 380 nm) detected. The measuring cuvette contained catalase (2000 U) to counteract inactivation of the chemoattractants by the MPO-H2O2-system. […] The relative calcium level was expressed as a ratio between Fluo-3 and Fura Red (FL-1/FL-3) fluorescence over time.
Figure 5 F2Pal10 induces pertussis toxin sensitive superoxide production and triggers mobilization of calcium from intracellular stores. […] Abscissa, time of study (sec); ordinate, fluorescence (arbitrary unit). […]

FPR2 [1] = biological target: T1, FPR2 (Homo sapiens, UniProt P25090); assay: Homologous desensitization of neutrophils (superoxide); assay type: cell-based; conditions: first F2Pal10 (500 nM) then WKYMVM (40 nM), or reversed order, five minutes apart
T1 construct: Human peripheral blood neutrophils were isolated from buffy coats from healthy blood donors; endogenous in cells; host or cells: primary human peripheral blood neutrophils from buffy coats of healthy donors
T1 sequence (P25090 1-351): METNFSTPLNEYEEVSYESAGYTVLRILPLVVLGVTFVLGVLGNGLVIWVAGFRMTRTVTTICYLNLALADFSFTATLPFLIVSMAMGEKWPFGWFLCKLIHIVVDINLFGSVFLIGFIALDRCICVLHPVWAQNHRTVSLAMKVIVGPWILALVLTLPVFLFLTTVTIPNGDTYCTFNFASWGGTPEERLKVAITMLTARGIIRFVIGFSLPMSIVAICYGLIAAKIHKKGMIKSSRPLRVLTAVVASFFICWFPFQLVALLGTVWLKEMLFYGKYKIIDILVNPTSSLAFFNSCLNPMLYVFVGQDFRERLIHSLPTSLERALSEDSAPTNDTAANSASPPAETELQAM
Procedure: (§1) Human peripheral blood neutrophils were isolated from buffy coats from healthy blood donors using dextran sedimentation and Ficoll-Paque gradient centrifugation as described. The remaining erythrocytes were disrupted by hypotonic lysis, the neutrophils were washed twice, resuspended in KRG, and stored on melting ice until use. This isolation procedure permits cells to be purified with minimal granule mobilization.
The NADPH-oxidase activity was determined using isoluminol-enhanced chemiluminescence (CL), [27]. The CL activity was measured in a six-channel Biolumat LB 9505 (Berthold Co., Wildbad, Germany), using disposable 4-ml polypropylene tubes with a 900 µl reaction mixture containing 10^5 cells, isoluminol (2×10^−5 M) and HRP (2 U). The tubes were equilibrated in the Biolumat for 5 min at 37°C, after which the stimulus (100 µl) was added and the light emission was recorded continuously. […]
Figure 1 The F2Pal10 pepducin specifically activates FPR2. A. Primary human neutrophils were activated by F2Pal10 (500 nM) in the absence (solid line) or presence of the receptor specific inhibitor PBP10 (FPR2 specific inhibitor; 1 µM final concentration, dashed line) or the FPR1 antagonist cyclosporin H (CysH; 1 µM final concentration, dotted line) and the release of superoxide anions was recorded continuously. […] The release of superoxide anions was recorded continuously. […]

FPR2 [2] = biological target: T1, FPR2; assay: Neutrophil NADPH-oxidase activity (superoxide release), direct activation of naive cells; assay type: cell-based
Procedure: as §1
The NADPH-oxidase activity was determined using isoluminol-enhanced chemiluminescence (CL), [27]. The CL activity was measured in a six-channel Biolumat LB 9505 (Berthold Co., Wildbad, Germany), using disposable 4-ml polypropylene tubes with a 900 µl reaction mixture containing 10^5 cells, isoluminol (2×10^−5 M) and HRP (2 U). The tubes were equilibrated in the Biolumat for 5 min at 37°C, after which the stimulus (100 µl) was added and the light emission was recorded continuously. Receptor desensitized cells were defined as naïve (non-desensitized) cells that had first been stimulated with a receptor specific agonist and returned to baseline after the resulting release of superoxide before a second stimulation. When reactivation experiments were performed with antagonists, the antagonists were added to the CL reaction mixture 1 min before the second stimulation. For studies with signaling inhibitors, cells were incubated with inhibitors at 37°C for 15 min before agonist addition. Control cells received no treatment but were incubated under the same conditions.
Data analysis was performed using GraphPad Prism 6.0 (Graphpad Software, San Diego, CA, USA).
Representative experiments out of more than five are shown and an arrow indicates the time point for agonist addition. Abscissa: Time of study (min); ordinate: Superoxide production (Mcpm).

CSCC[C@H](NC(=O)[C@@H](NC(=O)[C@H](CCSC)NC(=O)[C@H](Cc1ccc(O)cc1)NC(=O)[C@H](CCCCN)NC(=O)[C@@H](N)Cc1c[nH]c2ccccc12)C(C)C)C(N)=O [WKYMVM]
rise in cytosolic Ca2+ in neutrophils (neutrophils; Fluo-3/Fura Red, without EGTA): a rise in the cytosolic concentration of Ca^2+ was induced
rise in cytosolic Ca2+ in neutrophils, with EGTA (neutrophils; extracellular Ca2+ removed by EGTA (2 mM)): The rise was evident also when extracellular Ca^2+ was removed
desensitization to second FPR2 agonist (FPR2 [1]): vice versa
concentration inducing comparable sub-maximum response, pair 1 (FPR2 [2]; first stimulation of naive neutrophils, 10 nM WKYMVM≈100 nM F2Pal10): 10 nM
concentration inducing comparable sub-maximum response, pair 2 (FPR2 [2]; first stimulation of naive neutrophils, 25 nM WKYMVM≈250 nM F2Pal10): 25 nM
concentration inducing comparable sub-maximum response, pair 3 (FPR2 [2]; first stimulation of naive neutrophils, 40 nM WKYMVM≈500 nM F2Pal10): 40 nM
time to peak of radical production (FPR2 [2]; upon stimulation of neutrophils): around one
